Experimental data taken from patent publication US7893252B2, “Selectively depolymerized galactomannan polysaccharide” (priority 2003, dated 2011).

Legend:
[1] = tested on: rats; test: Acute toxicology, single IV dose in rats; assay type: in vivo; settings: 5-FU 140 mg/kg, galactomannan 72 mg/kg, combination 140/72 mg/kg, n=5/sex/group
Protocol: (§1) Acute toxicology studies of the galactomannan of the present invention were performed in mice, rats and dogs and subchronic toxicology studies were performed in rats and dogs. The following is a summary of the findings of these studies:
In rats (n=5/sex/group), single IV doses of 140 mg/kg (840 mg/m2) 5-FU, 72 mg/kg (432 mg/m2) galactomannan or 140/72 mg/kg of the combination produced no deaths in any of the groups.
Toxic changes in body weight, feed consumption, and hematology were less severe in the rats injected with the combination, versus those injected with 5-FU alone.

[2] = tested on: COLO 205 human colon tumor xenografts; test: Efficacy and compatibility with leucovorin in COLO 205 human colon tumor xenografts, q4d×4 (Example 4); settings: GM 120 mg/kg/dose
Protocol: The principal differences with the study described in Example 3 were that (a) the galactomannan was from another source, of a different size (molecular weight) and with a different Man/Gal ratio, (b) there were four consecutive injections, not three, (c) there were four doses of the galactomannan tested, not one, (d) 5-FU was administered (i.v.) in 48 mg/kg/dose, not 75 mg/kg/dose, as in the first study, and (e) galactomannan (i.v. injection) was compared with leucovorin (oral gavage, administered two hours after 5-FU) in terms of efficacy and toxicity. […] 5-FU alone was administered i.v. on the same q4d×4 treatment schedule at dosages of 48 mg/kg/dose. 5-FU was formulated in saline fresh on each day of treatment at a concentration of 4.8 mg/mL, at pH 9.2. […] Leucovorin powder (clinical formulation, Leucovorin calcium for injection) was reconstituted with water for injection to yield a concentration of 10 mg/mL. On each day of treatment the stock solution was diluted with water for injection to yield a concentration of 2.5 mg/mL.
Two more combination-treatment groups were also included in the study. One group of mice was treated with 5-FU (48 mg/kg/dose, i.v., q4d×4), followed by oral gavage (p.o.) with leucovorin, administered two hours after 5-FU at a dosage of 25 mg/kg/dose. Another two groups of mice were treated with 5-FU in a combination with the galactomannan (48 mg/kg/dose and 120 mg/kg/dose, respectively, i.v., q4d×4), followed by p.o. leucovorin treatment, administered at a dosage of 25 mg/kg/dose two hours after 5-FU plus the galactomannan.
There were a total of nine groups of 10 animals each, s.c.-implanted with COLO 205 human colon tumor xenografts.

[3] = tested on: dogs; test: Acute toxicology, single IV injection in dogs; assay type: in vivo; settings: 5-FU 28.5 mg/kg, galactomannan 15 mg/kg, combination 28.5/15 mg/kg
Protocol: as §1
The surviving dogs remained clinically normal and had no treatment-related changes in body weight, feed consumption, ECG tracings, clinical pathology or gross tissue changes during the 21-day study period.

[4] = tested on: mice; test: Acute toxicology, single IV dose in mice; assay type: in vivo; settings: single IV dose 409 mg/kg (1227 mg/m2) 5-FU
Protocol: Acute toxicology studies of the galactomannan of the present invention were performed in mice, rats and dogs and subchronic toxicology studies were performed in rats and dogs. The following is a summary of the findings of these studies: […]

[5] = tested on: human colon tumor COLO 205; test: Efficacy study in COLO 205 human colon tumor xenografts, q4d×3 (Example 3); settings: 5-FU 75 mg/kg/dose
Protocol: The both studies were conducted as follows.
5-FU alone was administered i.v. on the same q4d×3 treatment schedule at doses of 75 mg/kg/dose (225 mg/m2/dose). 5-FU was formulated in saline fresh on each day of treatment at a concentration of 3.75 mg/mL, at pH 9.2. […] Both individual compounds and their mixture were administered according to exact body weight with injection volume being 0.2 mL/10 g body weight.
There were a total of four groups of 10 animals each, s.c.-implanted with COLO 205 human colon tumor xenografts.

[6] = tested on: rats; test: 28-day subchronic rat study (Example 7); assay type: in vivo; settings: 48 mg/kg 5-FU, daily IV for four consecutive days
Protocol: In the 28-day subchronic rat study performed with research grade unfiltered galactomannan, single daily IV doses of 10 mL/kg saline, 48 mg/kg (288 mg/m2) 5-FU, 48 mg/kg (288 mg/m2) galactomannan or 24/13 mg/kg (144/78 mg/m2), 36/19 mg/kg (216/114 mg/m2) or 48/25 mg/kg (288/150 mg/m2) of the 5-FU/galactomannan combination were given at a rate of 1 mL/min for four consecutive days. The four doses of 5-FU produced mortality (7/8 with 48 mg/kg 5-FU; 1/8, 2/8 and 7/8 with 24/13, 36/19 and 48/25 mg/kg 5-FU/galactomannan, respectively).
Lesions in unscheduled-death animals were primarily due to the expected action of 5-FU on the hematopoietic and lymphoid systems, with secondary bacterial invasion and disseminated hemorrhage due to effects on coagulation. At the study day 5 necropsy, lesions included pronounced hypocellularity of the bone marrow, lymphoid atrophy of the thymus and atrophy of villi in the various segments of the small intestine (all considered due to the expected action of 5-FU). With the exception of the mild granulomatous foci in the lungs, treatment-related histopathological lesions were resolved in animals sacrificed at study day 29 (only one female survived in Group 2 and Group 6).

[7] = tested on: beagle dogs; test: 28-day canine study (Example 9); assay type: in vivo; settings: 6 mg/kg (120 mg/m2) 5-FU, daily IV for four consecutive days
Protocol: In a 28-day canine study, single daily IV doses of saline, 6 mg/kg (120 mg/m2) 5-FU and ([…] (240 mg/m2) galactomannan or 4/2 mg/kg (80/40 mg/m2), 6/3.2 mg/kg (120/64 mg/m2) or 6/6 mg/kg (120/120 mg/m2) 5-FU/galactomannan were injected for four consecutive days to six groups of beagle dogs Mortality occurred in 13 of 48 dogs (five moribund sacrifices and eight found dead) between Study Days 2 and 5 (4/4 males on 5-FU; 3/4 males in the 4/2 mg/kg 5-FU/galactomannan group; 2/4 males and 1/4 females in the 6/3.2 and 6/6 mg/kg 5-FU/galactomannan groups, respectively).
Adverse effects in 5-FU groups included ataxia, prostration, vocalization, convulsions, tremors, hypersensitivity to touch, aggressive behavior (resulting in only three doses being given to the 6/3.2 5-FU/galactomanna group), emesis, salivation, soft stools and decreased red cell parameters and platelet counts. […] At the day 5 necropsy, treatment-related histological changes were largely limited to the 5-FU females. At day 29 necropsy, there were no remarkable changes in the survivors.

[8] = tested on: advanced colorectal cancer; settings: cited from earlier work
[9] = q4d×4, 5-FU 48 mg/kg/dose i.v., leucovorin oral 25 mg/kg/dose

Row | SMILES | deaths [1] | median to quadrupling of tumor volume ([2]; i.v. q4d×4, 5-FU 48 mg/kg/dose) [days] | median tumor volume after 13 days ([2]; i.v. q4d×4, 5-FU 48 mg/kg/dose) [mm3] | median days to quadrupling of tumor weight [2, 9] [days] | tumor weight at Day 13 from treatment initiation, mean [2, 9] [mg] | tumor weight at Day 13 from treatment initiation, median [2, 9] [mg] | death [3] | death [4] | time of death [4] [days] | mean survival time ([5]; i.v. q4d×3, GM 120 mg/kg/dose) [days] | median to quadrupling of tumor volume ([5]; i.v. q4d×3, GM 120 mg/kg/dose) [days] | median tumor volume after 56 days of the study ([5]; i.v. q4d×3, GM 120 mg/kg/dose) [mm3] | tumor regression after 56 days of the study ([5]; i.v. q4d×3, GM 120 mg/kg/dose) | treatment-related deaths ([5]; i.v. q4d×3, GM 120 mg/kg/dose, 10 mice per group, within two weeks) | time required to quadruple tumor weight ([5]; intravenous, galactomannan 120 mg/kg/day (360 mg/m2)) [days] | mortality [6] | mortality between Study Days 2 and 5 [7] | patients with hand-foot syndrome ([8]; continuous infusion regimens) | single agent response rate ([8]; previously treated colorectal cancer patients) [%]
1 | O=c1[nH]cc(F)c(=O)[nH]1 [5-FU, 5-fluorouracil, reference compound] | no deaths | 8.7 | 800 | 8.7 | 734 | 800 | 2/2 | 3/5 | 13 to 16 | 23.7 | 23.7 | 2254 | no tumor regression | three of ten | 23.5 | 7/8 | 4/4 | approximately 20% | –
2 | O=C1[O][Pt]2([NH][C@@H]3CCCC[C@H]3[NH]2)[O]C1=O [Oxaliplatin] | – | – | – | – | – | – | – | – | – | – | – | – | – | – | – | – | – | – | 10
